This is an account of results in ChEMBL document CHEMBL1132092, “Structure-activity relationship at the proximal phenyl group in a series of non-peptidyl N-type calcium channel antagonists” (Bioorg Med Chem Lett, 1999).

The test has as its target Voltage-dependent N-type calcium channel subunit alpha-1B (Homo sapiens, UniProt Q00975). The test can be described thus: Inhibition of N-type Voltage Sensitive Calcium Channel (VSCC) using IMR-32 assay. In kind it is functional.

Voltage-dependent N-type calcium channel subunit alpha-1B, sequence (Q00975 whole entry): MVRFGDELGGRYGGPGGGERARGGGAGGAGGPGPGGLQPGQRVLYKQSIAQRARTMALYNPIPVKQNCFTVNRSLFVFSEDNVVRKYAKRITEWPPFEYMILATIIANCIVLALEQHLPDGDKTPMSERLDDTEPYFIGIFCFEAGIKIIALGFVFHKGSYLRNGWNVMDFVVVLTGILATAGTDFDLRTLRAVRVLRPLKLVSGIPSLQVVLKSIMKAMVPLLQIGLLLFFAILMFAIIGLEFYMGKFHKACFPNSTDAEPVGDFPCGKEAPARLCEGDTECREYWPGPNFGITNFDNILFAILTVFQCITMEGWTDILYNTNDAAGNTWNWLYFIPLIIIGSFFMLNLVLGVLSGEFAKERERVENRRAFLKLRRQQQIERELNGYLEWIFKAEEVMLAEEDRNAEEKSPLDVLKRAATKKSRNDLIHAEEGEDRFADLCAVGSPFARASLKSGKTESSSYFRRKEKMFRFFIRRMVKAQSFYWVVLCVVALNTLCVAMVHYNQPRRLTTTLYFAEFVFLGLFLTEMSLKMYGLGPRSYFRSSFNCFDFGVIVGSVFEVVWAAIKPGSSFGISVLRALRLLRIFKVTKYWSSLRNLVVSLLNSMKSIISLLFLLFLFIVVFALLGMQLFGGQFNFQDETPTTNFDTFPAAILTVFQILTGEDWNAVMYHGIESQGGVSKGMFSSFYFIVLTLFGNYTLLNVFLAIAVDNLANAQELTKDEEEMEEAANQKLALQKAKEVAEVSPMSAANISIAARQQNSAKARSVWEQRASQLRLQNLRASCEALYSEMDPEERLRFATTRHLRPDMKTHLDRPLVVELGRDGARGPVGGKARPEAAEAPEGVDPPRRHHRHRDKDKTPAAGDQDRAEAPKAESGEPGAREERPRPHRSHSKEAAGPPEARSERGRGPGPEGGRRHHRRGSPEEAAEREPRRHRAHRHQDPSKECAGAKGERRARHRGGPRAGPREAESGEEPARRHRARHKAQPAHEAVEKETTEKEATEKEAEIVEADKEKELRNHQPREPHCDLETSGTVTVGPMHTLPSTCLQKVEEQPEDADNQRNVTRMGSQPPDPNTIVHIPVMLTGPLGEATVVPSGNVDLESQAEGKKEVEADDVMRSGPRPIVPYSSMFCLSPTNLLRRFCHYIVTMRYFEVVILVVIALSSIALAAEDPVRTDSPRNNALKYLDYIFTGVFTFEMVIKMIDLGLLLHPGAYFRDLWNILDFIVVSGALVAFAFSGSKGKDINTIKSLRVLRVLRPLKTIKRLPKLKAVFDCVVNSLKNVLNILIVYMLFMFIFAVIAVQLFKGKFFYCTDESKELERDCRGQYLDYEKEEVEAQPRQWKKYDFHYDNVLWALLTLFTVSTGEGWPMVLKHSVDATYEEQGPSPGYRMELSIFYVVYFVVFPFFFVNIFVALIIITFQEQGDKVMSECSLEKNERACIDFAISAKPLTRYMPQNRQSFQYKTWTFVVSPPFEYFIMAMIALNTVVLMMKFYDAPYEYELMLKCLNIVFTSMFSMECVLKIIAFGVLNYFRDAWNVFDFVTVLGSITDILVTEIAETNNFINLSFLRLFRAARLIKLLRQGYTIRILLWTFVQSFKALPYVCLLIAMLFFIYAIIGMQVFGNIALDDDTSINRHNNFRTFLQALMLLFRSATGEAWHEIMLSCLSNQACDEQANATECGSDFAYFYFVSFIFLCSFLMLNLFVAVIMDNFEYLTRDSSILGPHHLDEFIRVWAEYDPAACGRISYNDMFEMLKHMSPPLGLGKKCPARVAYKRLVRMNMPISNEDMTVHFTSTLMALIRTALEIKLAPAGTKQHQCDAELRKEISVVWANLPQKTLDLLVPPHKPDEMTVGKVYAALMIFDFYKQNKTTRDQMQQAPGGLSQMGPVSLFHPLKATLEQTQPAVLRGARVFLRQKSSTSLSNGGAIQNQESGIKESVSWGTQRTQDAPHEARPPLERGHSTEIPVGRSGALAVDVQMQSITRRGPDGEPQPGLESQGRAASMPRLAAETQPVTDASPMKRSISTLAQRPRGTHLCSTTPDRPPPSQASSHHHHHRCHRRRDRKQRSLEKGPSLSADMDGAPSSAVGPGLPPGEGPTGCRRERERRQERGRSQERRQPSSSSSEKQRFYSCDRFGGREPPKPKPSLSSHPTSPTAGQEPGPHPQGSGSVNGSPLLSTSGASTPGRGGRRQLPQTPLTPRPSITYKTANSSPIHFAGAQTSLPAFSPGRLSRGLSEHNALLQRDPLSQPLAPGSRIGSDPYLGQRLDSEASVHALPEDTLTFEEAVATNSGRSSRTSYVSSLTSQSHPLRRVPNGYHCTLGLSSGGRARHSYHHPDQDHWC

What is called IC50 is the concentration that gives 50% inhibition. For the molecule `CC(C)CCN(c1ccc(O)cc1)C1CCN(C(=O)[C@H](CC(C)C)NC(=O)N2CCCCCC2)CC1`, the half-inhibitory concentration (IC50) was 1100 nM.

With `CC(C)CCN(c1ccc(NCc2cnc[nH]2)cc1)C1CCN(C(=O)[C@H](CC(C)C)NC(=O)N2CCCCCC2)CC1`, the IC50 came out at 120000 nM.

Regarding `CC(C)=CCN(c1ccc(CCc2ccccc2)cc1)C1CCN(C(=O)[C@H](CC(C)C)NC(=O)N2CCCCCC2)CC1`, the IC50 is 670 nM.

Take `CC(C)CCN(c1ccc(OCc2ccccc2)cc1)C1CCN(C(=O)[C@H](CC(C)C)NC(=O)N2CCCCCC2)CC1`: the IC50 worked out at 190 nM.

Turning to `CC(C)=CCN(c1ccc(OCc2ccccc2)cc1)C1CCN(C(=O)[C@H](CC(C)C)NC(=O)N2CCCCCC2)CC1`, the IC50 worked out at 340 nM.

For `CC(C)=CCN(c1ccccc1)C1CCN(C(=O)[C@H](CC(C)C)NC(=O)N2CCCCCC2)CC1`, the IC50 is 1000 nM.
